Reference: EP0801527B1 (priority 1995, dated 1996)
pEC50, pKi: −log10 of the molar value. Read-outs that look alike come from different tables or passages of the source.

Key:
[1] = target: T1, muscle-like nicotinic receptors (Homo sapiens, UniProt P02708+P07510+Q07001); assay: cell-based; type: cell-based; conditions: for Emax: TE671/RD, read-out: Muscle Effect
T1 construct: Intact cells on dishes were used for functional studies; endogenous in cells; host or cells: TE671/RD human embryonal rhabdomyosarcoma cells
T1 sequence (P02708 21-457): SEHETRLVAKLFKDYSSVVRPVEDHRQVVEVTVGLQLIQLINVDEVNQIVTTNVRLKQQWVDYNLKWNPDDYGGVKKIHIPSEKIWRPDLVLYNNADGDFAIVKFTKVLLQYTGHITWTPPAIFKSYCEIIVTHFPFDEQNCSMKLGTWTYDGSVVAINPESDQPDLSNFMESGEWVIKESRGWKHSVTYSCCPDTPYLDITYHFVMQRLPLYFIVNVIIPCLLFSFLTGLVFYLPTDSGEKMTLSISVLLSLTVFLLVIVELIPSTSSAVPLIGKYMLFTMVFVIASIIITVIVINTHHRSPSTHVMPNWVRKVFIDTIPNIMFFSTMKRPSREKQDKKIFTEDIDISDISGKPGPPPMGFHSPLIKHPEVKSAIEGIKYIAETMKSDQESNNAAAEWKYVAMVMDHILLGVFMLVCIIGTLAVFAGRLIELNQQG
T1 sequence (P07510 23-517): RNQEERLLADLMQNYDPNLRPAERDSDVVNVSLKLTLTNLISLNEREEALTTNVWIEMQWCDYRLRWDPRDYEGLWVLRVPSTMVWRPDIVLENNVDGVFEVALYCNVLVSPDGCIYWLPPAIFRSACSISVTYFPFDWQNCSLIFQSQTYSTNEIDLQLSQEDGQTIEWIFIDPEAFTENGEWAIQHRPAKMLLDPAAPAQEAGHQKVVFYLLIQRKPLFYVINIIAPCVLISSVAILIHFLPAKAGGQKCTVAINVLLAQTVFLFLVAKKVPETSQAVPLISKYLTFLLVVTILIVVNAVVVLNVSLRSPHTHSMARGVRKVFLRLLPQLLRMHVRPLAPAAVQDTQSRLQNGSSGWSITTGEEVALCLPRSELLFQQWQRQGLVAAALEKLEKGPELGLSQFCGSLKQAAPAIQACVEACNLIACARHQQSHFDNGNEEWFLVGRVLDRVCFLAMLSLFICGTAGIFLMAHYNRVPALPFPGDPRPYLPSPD
T1 sequence (P11230 24-501, further chain): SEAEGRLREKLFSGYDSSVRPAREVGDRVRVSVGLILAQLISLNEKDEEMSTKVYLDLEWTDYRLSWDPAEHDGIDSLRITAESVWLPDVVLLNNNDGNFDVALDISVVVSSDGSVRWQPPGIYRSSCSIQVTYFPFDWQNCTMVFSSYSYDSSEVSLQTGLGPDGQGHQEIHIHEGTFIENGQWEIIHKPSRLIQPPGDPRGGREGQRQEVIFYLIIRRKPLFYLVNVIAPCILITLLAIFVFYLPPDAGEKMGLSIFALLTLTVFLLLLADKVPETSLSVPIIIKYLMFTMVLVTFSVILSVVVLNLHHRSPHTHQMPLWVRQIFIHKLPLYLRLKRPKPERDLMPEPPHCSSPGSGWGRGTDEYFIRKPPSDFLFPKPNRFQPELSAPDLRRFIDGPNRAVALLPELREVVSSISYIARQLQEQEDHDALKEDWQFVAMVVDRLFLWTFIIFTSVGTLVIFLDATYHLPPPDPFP
T1 sequence (Q07001 22-517): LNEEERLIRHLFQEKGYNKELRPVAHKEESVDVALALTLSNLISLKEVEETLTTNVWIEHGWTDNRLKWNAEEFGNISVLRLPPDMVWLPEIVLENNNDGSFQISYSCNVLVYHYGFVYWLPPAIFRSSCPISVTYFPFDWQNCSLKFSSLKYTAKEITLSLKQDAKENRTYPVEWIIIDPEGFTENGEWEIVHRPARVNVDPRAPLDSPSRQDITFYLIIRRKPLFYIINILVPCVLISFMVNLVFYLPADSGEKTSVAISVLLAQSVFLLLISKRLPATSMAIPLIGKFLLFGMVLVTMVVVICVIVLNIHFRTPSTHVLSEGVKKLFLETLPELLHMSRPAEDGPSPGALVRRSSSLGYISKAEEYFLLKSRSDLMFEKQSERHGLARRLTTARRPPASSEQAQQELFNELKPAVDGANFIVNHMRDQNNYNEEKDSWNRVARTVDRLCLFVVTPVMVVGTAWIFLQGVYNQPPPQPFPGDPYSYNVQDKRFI

[2] = target: T2, ganglionic-type neuronal nicotinic receptors (Rattus norvegicus, UniProt P04757+P12392); assay: cell-based; conditions: for Emax: PC-12, read-out: Ganglion Effect
T2 construct: Intact cells on dishes were used for functional studies; endogenous in cells; host or cells: PC12 rat pheochromocytoma cells
T2 sequence (P04757 26-499): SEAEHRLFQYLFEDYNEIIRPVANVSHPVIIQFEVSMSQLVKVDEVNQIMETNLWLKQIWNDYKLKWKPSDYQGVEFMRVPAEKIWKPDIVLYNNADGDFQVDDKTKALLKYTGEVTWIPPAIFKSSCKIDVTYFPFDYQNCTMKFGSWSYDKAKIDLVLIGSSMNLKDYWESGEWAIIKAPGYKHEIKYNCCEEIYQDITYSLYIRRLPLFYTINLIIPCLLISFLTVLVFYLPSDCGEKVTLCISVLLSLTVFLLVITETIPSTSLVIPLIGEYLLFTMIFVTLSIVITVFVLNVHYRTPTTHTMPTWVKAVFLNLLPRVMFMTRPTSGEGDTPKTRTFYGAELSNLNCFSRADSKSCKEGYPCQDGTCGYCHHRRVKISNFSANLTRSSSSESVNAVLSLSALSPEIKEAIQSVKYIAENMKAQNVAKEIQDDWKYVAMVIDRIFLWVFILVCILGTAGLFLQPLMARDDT
T2 sequence (P12392 21-495): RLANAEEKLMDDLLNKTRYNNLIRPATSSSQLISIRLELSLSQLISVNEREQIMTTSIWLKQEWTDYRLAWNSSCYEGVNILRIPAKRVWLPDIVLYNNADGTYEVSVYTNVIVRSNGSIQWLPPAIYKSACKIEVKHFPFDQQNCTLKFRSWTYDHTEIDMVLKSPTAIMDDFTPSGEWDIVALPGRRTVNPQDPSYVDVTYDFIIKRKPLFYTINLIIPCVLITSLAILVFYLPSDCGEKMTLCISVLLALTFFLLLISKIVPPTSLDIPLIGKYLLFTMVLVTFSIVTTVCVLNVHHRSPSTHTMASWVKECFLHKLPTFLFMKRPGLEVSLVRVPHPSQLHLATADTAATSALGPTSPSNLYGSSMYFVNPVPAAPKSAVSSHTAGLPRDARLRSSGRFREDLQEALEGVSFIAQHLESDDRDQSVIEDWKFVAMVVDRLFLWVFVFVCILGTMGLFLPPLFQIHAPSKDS

[3] = tested on: synaptosomes from the striatal area of rat brain; assay: [3H]-Dopamine release from striatal synaptosomes (continuous perfusion); type: cell-based, Sprague-Dawley rats; conditions: for Emax: Rattus norvegicus; for pEC50: rat striatal synaptosomes
Protocol: Dopamine release was measured by preparing synaptosomes from the striatal area of rat brain obtained from Sprague-Dawley rats generally according to the procedures set forth by Nagy et al., J. Neurochem., Vol. 43, pp. 1114-1123 (1984). Striata from 4 rats were homogenized in 2 ml of 0.32M sucrose buffered with 5 mM HEPES (pH 7.5), using a glass-Teflon tissue grinder. The homogenate was diluted to 5 ml with additional homogenization solution and centrifuged at 1,000 x g for 10 min. This procedure was repeated on the new pellet and the resulting supernatant was centrifuged at 12,000 x g for 20 min. A 3 layer discontinuous Percoll gradient consisting of 16 percent, 10 percent and 7.5 percent Percoll in HEPES-buffered sucrose was made with the final pellet dispersed in the top layer. After centrifugation at 15,000 x g for 20 min., the synaptosomes were recovered above the 16 percent layer with a Pasteur pipette, diluted with 8 ml of perfusion buffer (128 mM NaCl, 2.4 mM KCl, 3.2 Mm CaCl2, 1.2 mM KH2PO4, 1.2 mM MgSO4, 25 mM HEPES pH 7.4, 10 mM dextrose, 1 mM ascorbate, 0.01 mM pargyline), and centrifuged at 15,000 x g for 20 min. The new pellet was collected and re-suspended in perfusion buffer. The synaptosome suspension was incubated for 10 min. at 37°C. [^3H]-Dopamine (Amersham, 40-60 Ci/mmol) was added to the suspension to give a final concentration of 0.1 uM, and the suspension was incubated for another 5 min. Using this method, 30 to 90 percent of the dopamine was taken up into the synaptosomes, as determined by scintillation counting following filtration through glass fiber filters soaked with 0.5 percent polyethyleneimine. A continuous perfusion system was used to monitor release following exposure to each ligand. Synaptosomes were loaded onto glass fiber filters (Gelman type A/E). Perfusion buffer was dripped onto the filters (0.2-0.3 ml/min.) and pulled through the filters with a peristaltic pump. Synaptosomes were washed with perfusion buffer for a minimum of 20 min. before addition of the ligand. After the addition of 0.2 ml of a solution containing various concentrations of ligand, the perfusate was collected into scintillation vials at 1 min. intervals and the dopamine released was quantified by scintillation counting. Peaks of radioactivity released above background were summed and the average basal release during that time was subtracted from the total.

[4] = target: T3, high affinity CNS nicotinic receptors (Rattus norvegicus, UniProt P09483+P12390); assay: biochemical; type: binding, Rats (Sprague-Dawley)
T3 construct: Brain membrane preparations were obtained from brain tissue of either males or females; from tissue; host or cells: rat (Sprague-Dawley) brain without cerebellum, membrane preparation
T3 sequence (P09483 31-630): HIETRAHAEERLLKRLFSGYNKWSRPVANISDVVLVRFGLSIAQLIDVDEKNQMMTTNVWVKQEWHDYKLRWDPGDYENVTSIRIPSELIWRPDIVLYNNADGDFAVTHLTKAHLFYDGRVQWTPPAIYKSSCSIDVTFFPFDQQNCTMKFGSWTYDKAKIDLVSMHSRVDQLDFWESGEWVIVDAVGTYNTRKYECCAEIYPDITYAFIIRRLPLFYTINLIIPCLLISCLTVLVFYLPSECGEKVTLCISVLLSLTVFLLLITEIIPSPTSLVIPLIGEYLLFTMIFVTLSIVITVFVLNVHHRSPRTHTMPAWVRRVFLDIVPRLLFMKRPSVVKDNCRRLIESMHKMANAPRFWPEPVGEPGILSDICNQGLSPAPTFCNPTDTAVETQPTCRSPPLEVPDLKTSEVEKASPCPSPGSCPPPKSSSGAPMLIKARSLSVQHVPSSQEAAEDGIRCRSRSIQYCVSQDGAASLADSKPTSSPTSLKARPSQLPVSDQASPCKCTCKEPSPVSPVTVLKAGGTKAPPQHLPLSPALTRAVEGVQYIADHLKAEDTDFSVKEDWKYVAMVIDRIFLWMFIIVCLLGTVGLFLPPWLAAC
T3 sequence (P12390 25-500): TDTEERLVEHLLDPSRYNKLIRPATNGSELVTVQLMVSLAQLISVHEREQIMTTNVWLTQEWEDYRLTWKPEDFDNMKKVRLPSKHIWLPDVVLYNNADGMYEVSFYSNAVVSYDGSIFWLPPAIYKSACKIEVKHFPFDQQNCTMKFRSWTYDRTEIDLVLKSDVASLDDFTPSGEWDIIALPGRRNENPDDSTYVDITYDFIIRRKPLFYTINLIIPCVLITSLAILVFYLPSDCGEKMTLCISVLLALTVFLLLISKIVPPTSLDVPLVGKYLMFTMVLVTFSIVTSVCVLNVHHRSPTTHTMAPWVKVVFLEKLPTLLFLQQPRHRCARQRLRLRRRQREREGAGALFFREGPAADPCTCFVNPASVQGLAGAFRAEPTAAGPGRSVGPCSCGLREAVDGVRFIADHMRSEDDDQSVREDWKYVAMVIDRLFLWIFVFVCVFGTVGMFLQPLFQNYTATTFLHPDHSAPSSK

| Structure (SMILES) | Emax [1] [%] | Emax [2] [%] | Emax [3] [%] | pEC50 [3] | further results |
| --- | --- | --- | --- | --- | --- |
| COc1cncc(/C=C/CCN)c1 [Sample No. 3, (E)-4-[3-(5-methoxypyridin)yl] -3-butene-1-amine monofumarate] | 0 | 0 | 95 | 5.40 | – |
| CNCC/C=C/c1cncnc1 [Sample No. 2, (E)-N-methyl-4-(5-pyrimidinyl)-3-butene-1-amine] | 4 | 1 | 77 | 5.24 | – |
| CNCC/C=C\c1cccnc1 [Sample No. 5, (Z) metanicotine] | – | – | – | – | Dopamine Release Emax [3]: 88 %nicotine |
| CN1CCC[C@H]1c1cccnc1 [Sample No. C-1, (S)-(-)-nicotine, reference compound] | – | – | 100 | 6.94 | – |
| NCC/C=C/c1cncnc1 [Sample No. 1, (E)-4-(5-pyrimidinyl)-3-butene-1-amine monofumarate] | – | – | 113 | 5.36 | – |
| CNCC/C=C/c1cccnc1 [Sample No. 8, (E)-metanicotine, reference compound] | – | – | – | – | Muscle Effect [1]: 15 % nicotine; Dopamine Release Emax [3]: 80 %nicotine |
| CNCC/C=C/c1ccc(C)nc1 [Sample No. 6, (E)-N-methyl-4-[3-(6-methylpyrindin)yl]-3-butene-1-amine] | 2 | 4 | 60 | 6.66 | – |
| CNCCC#Cc1cccnc1 [Sample No. 4, N-Methyl-4-(3-pyridinyl)-3-butyne-1-amine] | – | – | 87 | 5.08 | Muscle Effect ([1]; te671/rd cells): 7 % nicotine; pKi [4]: 7.24; Ganglion Effect ([2]; pc12 cells): 59 % nicotine |
| CNCCCCc1cccnc1 [Sample No. 7, N-methyl-(3-pyridinyl)-butane-1-amine] | – | – | 72 | – | pKi [4]: 6.04 |
